ChEMBL document CHEMBL1201862, “PubChem BioAssay data set” (2004)
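In this assay, cells in 96-well plates receive the compound at five concentrations for 48 hours. Endpoints are linearly interpolated between the surrounding concentrations. At the GI50, growth is halved.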 Activity calls are given as the source filed them. No stated cut-off is given here; in the data, active = GI50 up to about 1.1 µM and inactive = higher.

Tests used:
Test in all cases: DTP human tumour cell line panel, 48 h
786-0 = tested on: 786-0
A498 = tested on: A498
ACHN = tested on: ACHN
EKVX = tested on: EKVX
HOP-62 = tested on: HOP-62
LOX IMVI = tested on: LOX IMVI
MCF7 = tested on: MCF7
MDA-MB-435 = tested on: MDA-MB-435
MDA-N = tested on: MDA-N
NCI/ADR-RES = tested on: NCI/ADR-RES
OVCAR-3 = tested on: OVCAR-3
OVCAR-5 = tested on: OVCAR-5
OVCAR-8 = tested on: OVCAR-8
RPMI-8226 = tested on: RPMI-8226
SF-539 = tested on: SF-539
SK-MEL-28 = tested on: SK-MEL-28
SNB-19 = tested on: SNB-19
T47D = tested on: T47D
TK-10 = tested on: TK-10
UACC-257 = tested on: UACC-257

Compound | GI50 (786-0) | GI50 (A498) | GI50 (ACHN) | GI50 (EKVX) | GI50 (HOP-62) | GI50 (LOX IMVI) | GI50 (MCF7) | GI50 (MDA-MB-435) | GI50 (MDA-N) | GI50 (NCI/ADR-RES) | GI50 (OVCAR-3) | GI50 (OVCAR-5) | GI50 (OVCAR-8) | GI50 (RPMI-8226) | GI50 (SF-539) | GI50 (SK-MEL-28) | GI50 (SNB-19) | GI50 (T47D) | GI50 (TK-10) | GI50 (UACC-257)
OC1C[C@H](c2ccccc2)C2(C(O)c3ccccc3C2O)[C@@H](c2ccccc2)C1 (stereo not given in full) | > 100 µM (inactive) | > 100 µM (inactive) | > 100 µM (inactive) | > 100 µM (inactive) | > 100 µM (inactive) | 40.2 µM (inactive) | > 100 µM (inactive) | > 100 µM (inactive) | > 100 µM (inactive) | 14.3 µM (inactive) | > 100 µM (inactive) | > 100 µM (inactive) | > 100 µM (inactive) | 83.2 µM (inactive) | > 100 µM (inactive) | > 100 µM (inactive) | > 100 µM (inactive) | > 100 µM (inactive) | > 100 µM (inactive) | 32.2 µM (inactive)
c1cc(Sc2nc(Sc3ccncc3)nc(Sc3ccncc3)n2)ccn1 | > 100 µM (inactive) | > 100 µM (inactive) | > 100 µM (inactive) | > 100 µM (inactive) | > 100 µM (inactive) | > 100 µM (inactive) | > 100 µM (inactive) | > 100 µM (inactive) | > 100 µM (inactive) | > 100 µM (inactive) | > 100 µM (inactive) | > 100 µM (inactive) | > 100 µM (inactive) | > 100 µM (inactive) | > 100 µM (inactive) | > 100 µM (inactive) | > 100 µM (inactive) | > 100 µM (inactive) | > 100 µM (inactive) | > 100 µM (inactive)
COc1ccc2c(c1)C(OC)C1c3c(cc4c(c3-2)OCO4)CCN1C (stereo not given) | 3.64 µM (inactive) | 1.82 µM (inactive) | 1.82 µM (inactive) | 4.34 µM (inactive) | 2.43 µM (inactive) | 2.81 µM (inactive) | 2.67 µM (inactive) | 3.34 µM (inactive) | 2.86 µM (inactive) | 1.87 µM (inactive) | 5.81 µM (inactive) | 3.13 µM (inactive) | 2.5 µM (inactive) | 3.46 µM (inactive) | 2.54 µM (inactive) | 3.88 µM (inactive) | 3.12 µM (inactive) | 6.56 µM (inactive) | 4.53 µM (inactive) | 3.38 µM (inactive)
O=C1OC(c2ccccc2)=N/C1=C\c1cn[nH]n1 | > 100 µM (inactive) | > 100 µM (inactive) | > 100 µM (inactive) | > 100 µM (inactive) | > 100 µM (inactive) | > 100 µM (inactive) | > 100 µM (inactive) | > 100 µM (inactive) | > 100 µM (inactive) | > 100 µM (inactive) | > 100 µM (inactive) | > 100 µM (inactive) | > 100 µM (inactive) | > 100 µM (inactive) | 70.1 µM (inactive) | > 100 µM (inactive) | > 100 µM (inactive) | > 100 µM (inactive) | > 100 µM (inactive) | > 100 µM (inactive)
O=C(Oc1ccc(S(=O)(=O)F)cc1F)c1ccccc1Cl | 33.7 µM (inactive) | 57.5 µM (inactive) | 56 µM (inactive) | 24.4 µM (inactive) | 34.8 µM (inactive) | 31.8 µM (inactive) | 29.5 µM (inactive) | 29.6 µM (inactive) | 33.3 µM (inactive) | 35.2 µM (inactive) | 29.9 µM (inactive) | 30.9 µM (inactive) | 30.8 µM (inactive) | 21.1 µM (inactive) | 22.5 µM (inactive) | 74 µM (inactive) | 30.5 µM (inactive) | 31.5 µM (inactive) | 43.1 µM (inactive) | 27.6 µM (inactive)
O=C(Cn1cc(F)c(=O)[nH]c1=O)C12CC3CC(CC(C3)C1)C2 | > 100 µM (inactive) | > 100 µM (inactive) | > 100 µM (inactive) | > 100 µM (inactive) | > 100 µM (inactive) | > 100 µM (inactive) | > 100 µM (inactive) | > 100 µM (inactive) | > 100 µM (inactive) | > 100 µM (inactive) | > 100 µM (inactive) | > 100 µM (inactive) | > 100 µM (inactive) | > 100 µM (inactive) | > 100 µM (inactive) | > 100 µM (inactive) | > 100 µM (inactive) | > 100 µM (inactive) | > 100 µM (inactive) | > 100 µM (inactive)
COc1cc([C@@H]2c3cc4c(cc3[C@H](OC3OC5COC(C(C)C)OC5C(O)C3O)C3COC(=O)[C@@H]32)OCO4)cc(OC)c1OC (stereo not given in full) | 2.58 µM (inactive) | 2.89 µM (inactive) | 4.79 µM (inactive) | 10.2 µM (inactive) | 7.24 µM (inactive) | 3.01 µM (inactive) | 3.38 µM (inactive) | 4.37 µM (inactive) | 2.18 µM (inactive) | 3.19 µM (inactive) | 2.62 µM (inactive) | 10.3 µM (inactive) | 4.13 µM (inactive) | 5.71 µM (inactive) | 3.6 µM (inactive) | > 100 µM (inactive) | 6.19 µM (inactive) | 12.7 µM (inactive) | 32 µM (inactive) | 5.01 µM (inactive)
O[C@@H]1CCC[C@@H]2NC[C@@H](c3ccc4c(c3)OCO4)[C@H]12 | > 100 µM (inactive) | > 100 µM (inactive) | > 100 µM (inactive) | > 100 µM (inactive) | > 100 µM (inactive) | > 100 µM (inactive) | > 100 µM (inactive) | > 100 µM (inactive) | > 100 µM (inactive) | > 100 µM (inactive) | > 100 µM (inactive) | > 100 µM (inactive) | > 100 µM (inactive) | > 100 µM (inactive) | > 100 µM (inactive) | > 100 µM (inactive) | > 100 µM (inactive) | > 100 µM (inactive) | > 100 µM (inactive) | > 100 µM (inactive)
O=C(CSc1nc2ccc([N+](=O)[O-])cc2s1)c1ccc2ccccc2c1 | 34 µM (inactive) | > 100 µM (inactive) | > 100 µM (inactive) | > 100 µM (inactive) | > 100 µM (inactive) | > 100 µM (inactive) | > 100 µM (inactive) | > 100 µM (inactive) | > 100 µM (inactive) | > 100 µM (inactive) | > 100 µM (inactive) | > 100 µM (inactive) | 37.4 µM (inactive) | > 100 µM (inactive) | 62.2 µM (inactive) | > 100 µM (inactive) | 50.2 µM (inactive) | > 100 µM (inactive) | 54.2 µM (inactive) | > 100 µM (inactive)
COC(=N)c1ncn(Cc2ccccc2)c1N | > 100 µM (inactive) | > 100 µM (inactive) | > 100 µM (inactive) | > 100 µM (inactive) | > 100 µM (inactive) | > 100 µM (inactive) | > 100 µM (inactive) | > 100 µM (inactive) | > 100 µM (inactive) | > 100 µM (inactive) | > 100 µM (inactive) | > 100 µM (inactive) | > 100 µM (inactive) | > 100 µM (inactive) | > 100 µM (inactive) | > 100 µM (inactive) | > 100 µM (inactive) | > 100 µM (inactive) | > 100 µM (inactive) | > 100 µM (inactive)
C=C(Cl)C(Cl)(CBr)CCC(Cl)C(C)C (stereo not given) | 0.337 µM (active) | 5.21 µM (inactive) | 2.92 µM (inactive) | 14.7 µM (inactive) | 1.25 µM (inactive) | 11.6 µM (inactive) | 1.12 µM (active) | 6.98 µM (inactive) | 3.72 µM (inactive) | 8.55 µM (inactive) | 1.32 µM (inactive) | 10.8 µM (inactive) | 3.19 µM (inactive) | 0.138 µM (active) | 1.3 µM (inactive) | 1.87 µM (inactive) | 4.04 µM (inactive) | 0.156 µM (active) | 1.33 µM (inactive) | 1.37 µM (inactive)
O=C1N(CN2CCOCC2)CN(CN2CCOCC2)C(=O)N1Cc1ccccc1 | 26.6 µM (inactive) | > 100 µM (inactive) | 32.5 µM (inactive) | 38.5 µM (inactive) | 35.4 µM (inactive) | 15.5 µM (inactive) | 29.4 µM (inactive) | 20 µM (inactive) | 18.2 µM (inactive) | 23.1 µM (inactive) | 23.9 µM (inactive) | > 100 µM (inactive) | 19.2 µM (inactive) | 26.5 µM (inactive) | 19.2 µM (inactive) | 19.3 µM (inactive) | > 100 µM (inactive) | 30.3 µM (inactive) | > 100 µM (inactive) | 21.7 µM (inactive)
Br[Se]c1ccccn1 | 18.2 µM (inactive) | 17.9 µM (inactive) | 16.3 µM (inactive) | 17.6 µM (inactive) | 2.48 µM (inactive) | 18.7 µM (inactive) | 17.7 µM (inactive) | 17.3 µM (inactive) | 17.7 µM (inactive) | 26.1 µM (inactive) | 15.5 µM (inactive) | 20.2 µM (inactive) | 19.6 µM (inactive) | 23.8 µM (inactive) | 15.8 µM (inactive) | 19.6 µM (inactive) | 12.4 µM (inactive) | 21.8 µM (inactive) | 20.2 µM (inactive) | 17.8 µM (inactive)
O=C1OC2(c3ccc(O)cc3Oc3cc(O)ccc32)c2c1c(-c1ccccc1)c(-c1ccccc1)c(-c1ccccc1)c2-c1ccccc1 | 27.7 µM (inactive) | 19.7 µM (inactive) | 19.9 µM (inactive) | 25.8 µM (inactive) | 23.7 µM (inactive) | 18.5 µM (inactive) | 17.1 µM (inactive) | 17.2 µM (inactive) | 21.8 µM (inactive) | 31.2 µM (inactive) | 34.5 µM (inactive) | 20.4 µM (inactive) | 22.4 µM (inactive) | 27.7 µM (inactive) | 22.9 µM (inactive) | 20.8 µM (inactive) | 18.7 µM (inactive) | 26.5 µM (inactive) | 23.7 µM (inactive) | 27.7 µM (inactive)
